Reference: PMC4579270, “Identification and Characterization of an Irreversible Inhibitor of CDK2” (Chemistry & Biology, 2015)

Columns and labels:
CDK2^K89V = biological target: T1, CDK2^K89V (Homo sapiens, UniProt P24941, K89V); experiment: ESI-MS of covalent adduct, mutant; settings: CDK2^K89V/cyclin A, overnight incubation
T1 construct: GST (N, cleaved yes); made in house; host or cells: Escherichia coli; phosphorylated in vitro by GST-CAK
Protocol: (§1) These residues were individually mutated to an alanine, glutamate, or valine, respectively, and the resulting mutant CDK2/cyclin A complexes were analyzed by ESI-MS following overnight incubation with either NU6300 (exact mass 413.15) or DMSO (Figure S2 and Table S1).
(§2) Figure S2, Related to Figure 3. Identification of the site of CDK2 modification by NU6300. (A-G) Single site CDK2 mutants CDK2D86A, CDK2K88E, and CDK2K89V identify the site of CDK2 modification by NU6300. These mutations change the CDK2 sequence to that of CDK7 and are known not to disrupt the CDK2 fold. Mass spectra of CDK2 mutants:
(§3) (A), (D), CDK2D86A/cyclin A; (B), (E), CDK2K88E/cyclin A; (C), (F), CDK2K89V/cyclin A (3 mg/mL) pre-incubated overnight in the absence/presence of NU6300. (A-C), positive controls, CDK2/cyclin A mutants assayed in the absence of NU6300; (D-F), CDK2/cyclin A mutants pre-incubated with NU6300. For each mutant, the experimentally determined and […]
(§4) (G) Protein kinase activity of authentic CDK2 and single site CDK2 mutants following incubation with NU6300 or NU6310. Samples were taken at the indicated number of minutes after initiation of the reaction. Note that compared to authentic CDK2, the single site Lys88 and Lys89 mutants have a slower rate of reaction (Compare LHS panels). […]

CDK2^D86A = biological target: T2, CDK2^D86A (Homo sapiens, UniProt P24941, D86A); experiment: ESI-MS of covalent adduct, mutant; settings: CDK2^D86A/cyclin A, overnight incubation
T2 construct: GST (N, cleaved yes); made in house; host or cells: Escherichia coli; phosphorylated in vitro by GST-CAK
Protocol: as §1, §2, §3, §4

YES1 = YES1 (Homo sapiens, UniProt P07947); experiment: Dundee protein kinase screen; type: biochemical; settings: YES1, 1µM; read-out: %Remaining activity at 1µM NU6300
YES1, sequence (P07947 whole entry): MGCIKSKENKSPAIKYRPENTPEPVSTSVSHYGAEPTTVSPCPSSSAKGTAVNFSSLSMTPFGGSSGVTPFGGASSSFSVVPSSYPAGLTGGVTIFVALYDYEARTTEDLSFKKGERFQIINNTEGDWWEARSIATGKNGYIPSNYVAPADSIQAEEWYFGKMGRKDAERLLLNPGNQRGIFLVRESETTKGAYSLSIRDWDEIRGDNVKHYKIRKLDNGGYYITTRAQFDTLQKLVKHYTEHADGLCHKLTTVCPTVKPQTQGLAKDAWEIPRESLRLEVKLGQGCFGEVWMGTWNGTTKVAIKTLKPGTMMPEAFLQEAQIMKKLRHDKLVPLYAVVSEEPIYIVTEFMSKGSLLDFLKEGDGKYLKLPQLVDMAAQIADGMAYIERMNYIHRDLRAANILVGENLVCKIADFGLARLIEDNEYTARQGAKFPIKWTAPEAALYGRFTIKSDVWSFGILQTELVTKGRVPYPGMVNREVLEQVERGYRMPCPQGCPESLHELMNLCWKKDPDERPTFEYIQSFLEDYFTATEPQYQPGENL
Protocol: (§5) Prior to determining its cellular activity, we carried out a screen to assess its selectivity against a panel of 131 protein kinases under conditions that would not distinguish between a reversible or irreversible mode of action. […] These 13 kinases and 29 additional kinases, selected for their known sensitivity to other inhibitors within the purine series, were then tested in a modified screening format in which the assay was repeated following a 4-hr pre-incubation (Table S3B). […] However, conformational flexibility around the active site may promote such an interaction with a residue from another part of the structure ([Martin et al., 2012]).
(§6) Table S3, Related to Figure 4. NCL-0006300 protein kinase selectivity. (A) NU6300 was tested at a single concentration of 1µM against 131 protein kinases present in a Dundee protein kinase screen (Bain et al., 2007). Values given are % activity remaining and are the average of duplicate measurements: 0-25% (red), 26-50% (yellow), 51-80% […]
(§7) (black) and above 81% (green). […]

PIM1 = PIM1 (Homo sapiens, UniProt P11309); experiment: Dundee protein kinase screen; type: biochemical; settings: PIM1, 1µM; read-out: %Remaining activity at 1µM NU6300
PIM1, sequence (P11309 whole entry): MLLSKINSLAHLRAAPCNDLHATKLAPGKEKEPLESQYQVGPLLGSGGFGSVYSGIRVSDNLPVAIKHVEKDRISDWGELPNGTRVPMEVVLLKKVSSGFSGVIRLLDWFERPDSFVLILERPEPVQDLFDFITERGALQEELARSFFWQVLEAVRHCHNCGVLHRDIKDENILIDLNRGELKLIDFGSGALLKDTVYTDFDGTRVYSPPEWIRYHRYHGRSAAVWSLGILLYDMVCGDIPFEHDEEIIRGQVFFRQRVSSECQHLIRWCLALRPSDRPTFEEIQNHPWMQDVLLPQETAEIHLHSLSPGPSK
Protocol: as §5, §6, §7

TAK1 = biological target: T3, TAK1 (Homo sapiens, UniProt O43318); experiment: Dundee protein kinase screen; type: biochemical; settings: TAK1, 1µM; read-out: %Remaining activity at 1µM NU6300
T3 sequence (O43318 1-303 limits assumed): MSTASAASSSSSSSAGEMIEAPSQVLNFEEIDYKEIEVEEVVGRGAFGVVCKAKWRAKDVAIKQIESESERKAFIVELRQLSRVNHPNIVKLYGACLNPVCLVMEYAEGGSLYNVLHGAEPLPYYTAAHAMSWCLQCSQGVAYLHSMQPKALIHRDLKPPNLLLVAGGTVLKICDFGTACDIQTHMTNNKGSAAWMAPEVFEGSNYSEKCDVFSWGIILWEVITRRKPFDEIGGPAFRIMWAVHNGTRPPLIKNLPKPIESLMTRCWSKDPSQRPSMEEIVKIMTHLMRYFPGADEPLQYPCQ
Protocol: as §5, §6, §7

NEK2a = NEK2a (Homo sapiens, UniProt P51955); experiment: Dundee protein kinase screen; type: biochemical; settings: read-out: %Remaining activity at 1µM NU6300
NEK2a, sequence (P51955 whole entry): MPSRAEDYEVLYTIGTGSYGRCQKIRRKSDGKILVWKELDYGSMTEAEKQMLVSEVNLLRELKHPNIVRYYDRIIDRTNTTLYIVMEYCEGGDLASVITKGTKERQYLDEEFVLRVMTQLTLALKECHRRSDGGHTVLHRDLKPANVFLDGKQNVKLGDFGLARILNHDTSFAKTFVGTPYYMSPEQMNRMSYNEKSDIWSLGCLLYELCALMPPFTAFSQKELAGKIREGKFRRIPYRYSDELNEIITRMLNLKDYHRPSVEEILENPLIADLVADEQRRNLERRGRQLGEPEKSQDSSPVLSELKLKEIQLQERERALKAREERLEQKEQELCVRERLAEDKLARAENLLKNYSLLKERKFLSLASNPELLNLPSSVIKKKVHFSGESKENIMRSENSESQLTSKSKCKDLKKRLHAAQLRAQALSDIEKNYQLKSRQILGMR
Protocol: as §5, §6, §7

C=CS(=O)(=O)c1ccc(Nc2nc(OCC3CCCCC3)c3nc[nH]c3n2)cc1 [NU6300, 6-(cyclohexylmethoxy)-N-(4-(vinylsulfonyl)phenyl)-9H-purin-2-amine]
mass added to major CDK2 species (ESI-MS) (CDK2^K89V): no additional mass | mass added to major CDK2 species (ESI-MS) (CDK2^D86A): 414 Da | remaining activity at 1 µM (YES1): 17% | remaining activity at 1 µM (PIM1): 84% | remaining activity at 1 µM (TAK1): 14% | remaining activity at 1 µM (NEK2a): 55%
